Test results as given in patent US12383497B2, “Ready-to-use phenylephrine formulations and products” (INFORLIFE SA, priority 2023, dated 2025).
Structures can show the parent of a compound that is named as a salt.

Test: Effect of autoclaving (terminal sterilization) on the product
Type: physicochemical
Experimental: Batches of the phenylephrine composition of the present disclosure formulated as in Table 1 were manufactured for the study of the effect of autoclaving on product behavior by autoclaving at a target temperature T=121° C.±1° C. and time at different FOs according to USP <1222>, which is incorporated fully herein by reference.
The table below show the Critical Quality Attributes of the drug product. The objective of this study was to evaluate the quality of the proposed manufacturing process to determine whether the manufacturing process will endure the desired final product study.
The table below show the results of the autoclaving study using several batches of the phenylephrine hydrochloride product formulation of the disclosure, containing 0.08 mg/ml of phenylephrine HCL.

## CNC[C@H](O)c1cccc(O)c1 [phenylephrine, benzene methanol, 3-hydroxy-α [(methyl amino)methyl]-hydrochloride (R)]
  effect of terminal sterilization by autoclaving: caused degradation
